Measurements from the supplement of paper PMC12463676, “Small-molecule dissolution of stress granules by redox modulation benefits ALS models” (Nature Chemical Biology, 2025).

How the values were obtained:
potassium arsenate = compound: O=[As]([O-])(O)O.[K+] [potassium arsenate]; experiment: thermal stability z-score vs DMSO; higher = more thermally stabilized by treatment; conditions: HeLa; arsenate concentration 1 mM
Description: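 Cellular thermal proteome profiling in HeLa cells treated with 1 mM arsenate for 1 h (DMSO pretreatment), heated to ten temperatures (37-66.3 °C). Soluble protein was quantified by TMT mass spectrometry relative to DMSO controls; the thermal stability score was transformed to a z-score; mean of n = 3 experiments.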

lipoamide = compound: NC(=O)CCCCC1CCSS1 [lipoamide]; experiment: as above; conditions: HeLa, lipoamide concentration 100 µM
Description: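 Cellular thermal proteome profiling in HeLa cells. Cells were treated with 100 µM lipoamide for 1 h, with or without 1 mM arsenate for a further 1 h, then heated to ten temperatures (37-66.3 °C), and soluble protein was quantified by TMT mass spectrometry relative to 0.1% DMSO controls. The thermal stability score (sum of log2 fold changes minus the abundance score) was transformed to a z-score; mean of n = 3 experiments.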

[1] = arsenate co-treatment: 1 mM arsenate 1 h
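Also: each temperature applied for 3 min, abundance score taken as mean log2 fold change at the two lowest temperatures, z-score obtained by mean subtraction and division by SD.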

UniProt Q96TA1, sequence (Q96TA1 whole entry): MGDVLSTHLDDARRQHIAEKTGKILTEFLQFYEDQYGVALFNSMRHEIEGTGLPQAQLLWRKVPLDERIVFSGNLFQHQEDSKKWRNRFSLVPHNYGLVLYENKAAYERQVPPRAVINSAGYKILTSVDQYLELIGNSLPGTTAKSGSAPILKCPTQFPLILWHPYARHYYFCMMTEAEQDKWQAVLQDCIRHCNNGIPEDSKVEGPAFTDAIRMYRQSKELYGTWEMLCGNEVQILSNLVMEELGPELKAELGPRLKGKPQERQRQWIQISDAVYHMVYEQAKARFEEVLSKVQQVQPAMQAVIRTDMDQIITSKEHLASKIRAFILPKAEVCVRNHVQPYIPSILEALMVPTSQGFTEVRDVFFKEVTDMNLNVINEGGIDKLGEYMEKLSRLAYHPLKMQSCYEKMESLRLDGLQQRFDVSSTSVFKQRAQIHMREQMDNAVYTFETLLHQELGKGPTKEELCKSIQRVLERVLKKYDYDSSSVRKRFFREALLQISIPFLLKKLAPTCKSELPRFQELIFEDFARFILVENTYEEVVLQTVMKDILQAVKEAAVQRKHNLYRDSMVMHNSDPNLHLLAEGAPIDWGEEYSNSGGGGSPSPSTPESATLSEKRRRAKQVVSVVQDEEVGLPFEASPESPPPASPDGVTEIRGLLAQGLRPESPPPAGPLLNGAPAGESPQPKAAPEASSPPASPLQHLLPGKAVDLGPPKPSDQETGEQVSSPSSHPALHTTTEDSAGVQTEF
UniProt Q9NP50, sequence (Q9NP50 whole entry): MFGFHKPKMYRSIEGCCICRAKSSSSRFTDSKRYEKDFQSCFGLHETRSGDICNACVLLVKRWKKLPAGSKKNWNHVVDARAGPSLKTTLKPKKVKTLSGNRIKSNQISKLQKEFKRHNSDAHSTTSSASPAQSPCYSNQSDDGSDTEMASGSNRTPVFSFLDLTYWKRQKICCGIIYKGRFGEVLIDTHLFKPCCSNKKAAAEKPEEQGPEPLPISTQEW
UniProt Q8NCA5, sequence (Q8NCA5 whole entry): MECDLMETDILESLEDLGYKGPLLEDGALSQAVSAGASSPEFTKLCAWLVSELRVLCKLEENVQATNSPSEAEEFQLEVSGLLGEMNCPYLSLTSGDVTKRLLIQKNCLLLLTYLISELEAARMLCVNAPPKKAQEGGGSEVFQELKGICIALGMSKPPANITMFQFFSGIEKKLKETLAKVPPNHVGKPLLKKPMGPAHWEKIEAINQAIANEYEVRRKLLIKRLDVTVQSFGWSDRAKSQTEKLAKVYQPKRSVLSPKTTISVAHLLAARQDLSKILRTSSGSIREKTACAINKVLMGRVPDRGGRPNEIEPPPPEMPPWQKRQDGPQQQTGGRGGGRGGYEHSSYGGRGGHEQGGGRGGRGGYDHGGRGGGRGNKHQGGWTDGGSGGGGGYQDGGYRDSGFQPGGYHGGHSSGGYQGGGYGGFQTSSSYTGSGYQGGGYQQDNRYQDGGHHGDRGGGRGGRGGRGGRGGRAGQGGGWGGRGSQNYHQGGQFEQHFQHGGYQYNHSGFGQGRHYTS
UniProt Q8WUF8, sequence (Q8WUF8 whole entry): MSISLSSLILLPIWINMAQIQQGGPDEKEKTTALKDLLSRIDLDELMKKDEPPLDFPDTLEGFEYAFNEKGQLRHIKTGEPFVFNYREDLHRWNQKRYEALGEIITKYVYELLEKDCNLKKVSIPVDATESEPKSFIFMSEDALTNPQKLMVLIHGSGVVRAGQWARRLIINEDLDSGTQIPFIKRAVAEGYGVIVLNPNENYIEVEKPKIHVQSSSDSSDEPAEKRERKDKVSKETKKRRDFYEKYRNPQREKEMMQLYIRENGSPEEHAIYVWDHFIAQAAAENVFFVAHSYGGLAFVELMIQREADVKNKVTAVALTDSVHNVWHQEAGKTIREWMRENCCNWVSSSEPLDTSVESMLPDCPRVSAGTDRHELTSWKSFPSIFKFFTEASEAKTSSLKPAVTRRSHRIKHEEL
UniProt Q9BQD7, sequence (Q9BQD7 whole entry): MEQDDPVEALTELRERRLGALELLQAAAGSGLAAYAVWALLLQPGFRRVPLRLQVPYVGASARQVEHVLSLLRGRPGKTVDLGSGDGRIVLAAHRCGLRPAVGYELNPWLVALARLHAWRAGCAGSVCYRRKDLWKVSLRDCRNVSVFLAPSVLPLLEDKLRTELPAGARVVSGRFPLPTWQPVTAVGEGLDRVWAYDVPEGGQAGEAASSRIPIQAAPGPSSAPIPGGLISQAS
UniProt Q96EK7, sequence (Q96EK7 whole entry): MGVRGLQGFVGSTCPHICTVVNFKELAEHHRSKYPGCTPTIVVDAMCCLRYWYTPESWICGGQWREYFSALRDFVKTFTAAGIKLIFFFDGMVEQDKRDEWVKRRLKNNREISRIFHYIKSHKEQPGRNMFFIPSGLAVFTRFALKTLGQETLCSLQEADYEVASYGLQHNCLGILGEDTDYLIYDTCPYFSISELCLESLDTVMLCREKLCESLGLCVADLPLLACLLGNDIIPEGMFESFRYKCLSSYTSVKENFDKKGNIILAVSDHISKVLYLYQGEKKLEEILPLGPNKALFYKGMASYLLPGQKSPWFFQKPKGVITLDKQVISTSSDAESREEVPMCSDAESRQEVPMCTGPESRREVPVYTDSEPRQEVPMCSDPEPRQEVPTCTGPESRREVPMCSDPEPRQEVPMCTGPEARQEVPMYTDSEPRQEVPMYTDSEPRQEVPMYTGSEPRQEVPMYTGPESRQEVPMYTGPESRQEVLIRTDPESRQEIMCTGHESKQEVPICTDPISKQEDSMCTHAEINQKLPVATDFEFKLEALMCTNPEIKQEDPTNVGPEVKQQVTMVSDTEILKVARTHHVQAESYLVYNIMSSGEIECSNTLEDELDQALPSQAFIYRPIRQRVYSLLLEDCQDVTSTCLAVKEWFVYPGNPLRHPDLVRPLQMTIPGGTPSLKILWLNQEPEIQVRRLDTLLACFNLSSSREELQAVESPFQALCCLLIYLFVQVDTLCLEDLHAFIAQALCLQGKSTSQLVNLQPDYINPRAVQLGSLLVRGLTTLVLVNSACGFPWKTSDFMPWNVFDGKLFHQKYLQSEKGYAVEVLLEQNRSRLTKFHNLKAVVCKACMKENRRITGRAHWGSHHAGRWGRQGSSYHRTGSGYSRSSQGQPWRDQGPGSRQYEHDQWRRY
UniProt Q5W0V3, sequence (Q5W0V3 whole entry): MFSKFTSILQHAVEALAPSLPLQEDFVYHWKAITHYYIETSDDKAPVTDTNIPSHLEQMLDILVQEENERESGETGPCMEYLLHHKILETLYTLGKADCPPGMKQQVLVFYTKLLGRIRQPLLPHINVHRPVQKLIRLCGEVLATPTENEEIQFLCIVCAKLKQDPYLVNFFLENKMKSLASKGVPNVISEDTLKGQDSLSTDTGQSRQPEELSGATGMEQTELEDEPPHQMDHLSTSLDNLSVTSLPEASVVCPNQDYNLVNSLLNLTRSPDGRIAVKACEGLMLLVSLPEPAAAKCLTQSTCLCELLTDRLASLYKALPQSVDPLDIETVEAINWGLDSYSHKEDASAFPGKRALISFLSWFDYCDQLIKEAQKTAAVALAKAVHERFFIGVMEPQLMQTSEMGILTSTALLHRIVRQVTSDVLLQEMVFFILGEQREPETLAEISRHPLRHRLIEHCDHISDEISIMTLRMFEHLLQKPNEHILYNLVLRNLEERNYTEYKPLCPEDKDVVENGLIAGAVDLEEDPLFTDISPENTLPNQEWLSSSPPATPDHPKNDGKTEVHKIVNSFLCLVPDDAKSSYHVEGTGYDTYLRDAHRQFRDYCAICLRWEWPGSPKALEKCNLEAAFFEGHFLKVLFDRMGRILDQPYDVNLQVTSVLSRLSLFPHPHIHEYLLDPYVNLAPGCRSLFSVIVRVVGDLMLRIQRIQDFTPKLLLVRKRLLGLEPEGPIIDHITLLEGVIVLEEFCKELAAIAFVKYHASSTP
UniProt Q9H098, sequence (Q9H098 whole entry): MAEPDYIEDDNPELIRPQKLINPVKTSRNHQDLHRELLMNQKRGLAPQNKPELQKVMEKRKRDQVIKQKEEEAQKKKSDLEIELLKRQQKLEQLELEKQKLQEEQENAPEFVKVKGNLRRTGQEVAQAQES
UniProt Q9NRY5, sequence (Q9NRY5 whole entry): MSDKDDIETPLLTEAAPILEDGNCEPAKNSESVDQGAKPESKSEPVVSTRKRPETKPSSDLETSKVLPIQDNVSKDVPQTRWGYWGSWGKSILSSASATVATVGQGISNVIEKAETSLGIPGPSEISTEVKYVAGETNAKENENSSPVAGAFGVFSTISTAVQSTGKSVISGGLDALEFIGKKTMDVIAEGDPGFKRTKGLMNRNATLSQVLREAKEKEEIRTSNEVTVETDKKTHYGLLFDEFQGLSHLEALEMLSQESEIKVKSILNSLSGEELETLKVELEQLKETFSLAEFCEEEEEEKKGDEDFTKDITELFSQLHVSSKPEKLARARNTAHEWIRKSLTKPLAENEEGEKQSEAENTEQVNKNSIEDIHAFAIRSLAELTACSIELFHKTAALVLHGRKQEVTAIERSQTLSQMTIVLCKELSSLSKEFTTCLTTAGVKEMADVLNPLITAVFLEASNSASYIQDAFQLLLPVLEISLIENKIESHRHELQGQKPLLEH
UniProt Q14320, sequence (Q14320 whole entry): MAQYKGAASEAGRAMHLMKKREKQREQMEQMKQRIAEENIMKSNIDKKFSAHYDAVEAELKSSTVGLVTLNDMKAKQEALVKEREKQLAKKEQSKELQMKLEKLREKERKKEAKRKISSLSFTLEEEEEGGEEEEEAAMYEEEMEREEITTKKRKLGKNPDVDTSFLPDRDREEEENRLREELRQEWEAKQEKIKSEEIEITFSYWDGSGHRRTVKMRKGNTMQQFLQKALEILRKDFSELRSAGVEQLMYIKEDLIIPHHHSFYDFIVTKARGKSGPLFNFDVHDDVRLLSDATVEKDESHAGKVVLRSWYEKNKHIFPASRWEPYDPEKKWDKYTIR
UniProt Q96C01, sequence (Q96C01 whole entry): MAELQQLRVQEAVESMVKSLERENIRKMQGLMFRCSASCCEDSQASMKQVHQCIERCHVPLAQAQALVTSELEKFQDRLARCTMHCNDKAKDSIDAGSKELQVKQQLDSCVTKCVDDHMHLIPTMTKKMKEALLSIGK

| Target | thermal stability z-score (potassium arsenate) | thermal stability z-score (lipoamide; [1]) | thermal stability z-score (lipoamide; arsenate co-treatment: none) |
| --- | --- | --- | --- |
| FAM49B (UniProt Q9NUQ9) | 0.0541 | 0.4 | 0.0941 |
| FAM50A (UniProt Q14320) | 0.455 | -0.0555 | 0.352 |
| FAM60A (UniProt Q9NP50) | -0.681 | 0.0806 | 0.262 |
| FAM65A (UniProt Q6ZS17) | -0.0314 | 0.215 | 0.0539 |
| FAM73A (UniProt Q8NAN2) | 0.164 | -0.106 | 0.0979 |
| FAM83B (UniProt Q5T0W9) | -2.02 | -0.567 | -0.89 |
| FAM83D (UniProt Q9H4H8) | 0.641 | -0.472 | -0.432 |
| FAM83G (UniProt A6ND36) | 0.138 | -0.123 | 0.00979 |
| FAM83H (UniProt Q6ZRV2) | 0.0326 | -0.0915 | 0.0556 |
| FAM91A1 (UniProt Q658Y4) | -0.0432 | -0.0432 | -0.00182 |
| FAM96A (UniProt Q9H5X1) | -1.34 | -0.0873 | -0.652 |
| FAM96B (UniProt Q9Y3D0) | -0.128 | -0.113 | -0.0578 |
| FAM98A (UniProt Q8NCA5) | -1.6 | -0.444 | -0.673 |
| FAM98B (UniProt Q52LJ0) | -1.01 | 0.052 | -0.438 |
| FAM103A1 (UniProt Q9BTL3) | -0.0441 | 1.17 | 0.62 |
| FAM105A (UniProt Q9NUU6) | 0.337 | -0.00141 | -0.0135 |
| FAM107B (UniProt Q9H098) | 0.327 | -0.0721 | 0.629 |
| FAM111B (UniProt Q6SJ93) | 9.3 | 4.69 | 1.31 |

| Target | thermal stability z-score (potassium arsenate) | thermal stability z-score (lipoamide; [1]) | thermal stability z-score (lipoamide; arsenate co-treatment: none) |
| --- | --- | --- | --- |
| FAM114A1 (UniProt Q8IWE2) | 0.106 | -0.474 | -0.338 |
| FAM114A2 (UniProt Q9NRY5) | 0.222 | -0.354 | -0.328 |
| FAM117B (UniProt Q6P1L5) | 0.314 | -1.14 | 0.461 |
| FAM118B (UniProt Q9BPY3) | 0.57 | 0.49 | -0.244 |
| FAM120A (UniProt Q9NZB2) | 0.686 | -0.00535 | -0.0221 |
| FAM120B (UniProt Q96EK7) | -0.081 | 0.0177 | -0.0542 |
| FAM120C (UniProt Q9NX05) | -0.296 | -0.0604 | -0.0122 |
| FAM122B (UniProt Q7Z309) | -0.217 | -0.0455 | -0.144 |
| FAM129A (UniProt Q9BZQ8) | 0.444 | -0.167 | -0.0302 |
| FAM129B (UniProt Q96TA1) | -1.01 | 0.659 | 0.517 |
| FAM134A (UniProt Q8NC44) | -0.162 | 0.119 | -0.141 |
| FAM134C (UniProt Q86VR2) | 1.35 | 0.622 | -0.494 |
| FAM136A (UniProt Q96C01) | -1.98 | 1.12 | 0.665 |
| FAM160B1 (UniProt Q5W0V3) | -1.49 | -0.512 | -0.179 |
| FAM162A (UniProt Q96A26) | -0.244 | 0.884 | 0.302 |
| FAM172A (UniProt Q8WUF8) | 0.275 | 0.954 | 0.472 |
| FAM173A (UniProt Q9BQD7) | -0.445 | -0.403 | -0.6 |
